From patent US12195427B2, “MASP-2 inhibitors and methods of use” (priority 2018, dated 2025)

Biological target: MASP-2 CCP2-SP (Homo sapiens (Human), UniProt O00187)
Assay: MASP-2 co-crystallization, X-ray crystallography and structure analysis (H-bonds, van der Waals contacts);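 for Ligand-pharmacophore element distance, pharmacophore element C2: distance from averaged pharmacophore element to bound ligand; missing value means element absent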;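 for Ligand-pharmacophore element distance, pharmacophore element C3: distance from averaged pharmacophore element to bound ligand; missing value means element absent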;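 for Ligand-pharmacophore element distance, pharmacophore element C4: distance from averaged pharmacophore element to bound ligand; missing value means element absent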;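 for Ligand-pharmacophore element distance, pharmacophore element C5: distance from averaged pharmacophore element to bound ligand; missing value means element absent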
Parameters: van der Waals contact distance, MASP-2 HIS 483 atom CD2 / van der Waals contact distance, MASP-2 HIS 483 atom NE2 / van der Waals contact distance, SER 654 C to compound atom / van der Waals contact distance, SER 654 O to compound atom / van der Waals contact distance, TRP 655 C to compound atom / van der Waals contact distance, MASP-2 GLY 528 atom CA / van der Waals contact distance TRP 655 atom CZ3 / van der Waals contact distance TRP 655 atom N / van der Waals contact distance TRP 655 atom CE3 / van der Waals contact distance GLY 656 atom C / van der Waals contact distance GLY 656 atom CA / van der Waals contact distance GLY 656 atom O / van der Waals contact distance, MASP-2 TYR 607 atom CD1 / van der Waals contact distance, MASP-2 PRO 606 atom O / d(C3,CA1) / d(CA1,N1)2 / d(H4,O1) / d(H4,O2) / d(O1,O2) / d(CA1,O2) / d(CA6,O1) / d(CA6,O2) / d(CA1,C5) / d(O2,H3) / d(N2,C2) / d(CA5,N2) / d(N2,C4) / d(N2,C6) / d(N2,CA3) / d(N2,O3) / d(O4,H2): unit not given beside the values
Procedure, shortened: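 E. coli-expressed CCP2-SP (±6His); apo crystals soaked 1–2× in inhibitor-containing crystallization solution; optional 20% glycerol cryoprotection, LN2 flash-cool; synchrotron data at 1.0 wavelength; MR using 1Q3X portions, partial refinement; single pose analysed when several seen.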

[1] = Table A5-1 pharmacophore: distance between elements, S2/S1 region
[2] = Table A5-2 pharmacophore distance, S3/S4 region
[3] = Table A7-1, between pharmacophore elements of the bound compound
[4] = Table A8-6, nearest protein atom in cell to the left

Sequence of MASP-2 CCP2-SP (O00187 445-686): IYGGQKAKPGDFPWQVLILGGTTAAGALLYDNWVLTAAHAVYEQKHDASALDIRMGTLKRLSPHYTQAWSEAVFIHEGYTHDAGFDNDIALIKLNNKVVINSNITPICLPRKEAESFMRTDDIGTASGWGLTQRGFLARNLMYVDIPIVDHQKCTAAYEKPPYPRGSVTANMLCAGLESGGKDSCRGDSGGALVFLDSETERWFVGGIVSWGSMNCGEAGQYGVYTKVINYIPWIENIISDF
Sequence of MASP-2 CCP2-SP (O00187 364-432 partner): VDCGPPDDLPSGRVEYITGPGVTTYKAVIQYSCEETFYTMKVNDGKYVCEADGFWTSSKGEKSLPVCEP

## C[C@H](NC(=O)[C@H](N)CCCc1ccccc1)C(=O)NCc1ccc(C(=N)N)cc1.Cl.Cl [1042_2]
Table A4-1, element C2
  Ligand-pharmacophore element distance, pharmacophore element C2: 1.33
Table A4-1, element C3
  Ligand-pharmacophore element distance, pharmacophore element C3: 0
Table A4-1, element C4
  Ligand-pharmacophore element distance, pharmacophore element C4: 0
Table A4-1, element C5
  Ligand-pharmacophore element distance, pharmacophore element C5: 0
Table A4-1, element C6
  Ligand-pharmacophore element distance, pharmacophore element C6: 0
Table A4-1, element C7
  Ligand-pharmacophore element distance, pharmacophore element C7: 0
Table A4-1, element CA1
  Ligand-pharmacophore element distance, pharmacophore element CA1: 0.5
Table A4-1, element CA2
  Ligand-pharmacophore element distance, pharmacophore element CA2: 0.72
Table A4-1, element CA3
  Ligand-pharmacophore element distance, pharmacophore element CA3: 0
Table A4-1, element CA4
  Ligand-pharmacophore element distance, pharmacophore element CA4: 0
Table A4-1, element CA5
  Ligand-pharmacophore element distance, pharmacophore element CA5: 0
Table A4-1, element CA6
  Ligand-pharmacophore element distance, pharmacophore element CA6: 0
Table A4-2, element H1
  Ligand-pharmacophore element distance, pharmacophore element H1: 0
Table A4-2, element H2
  Ligand-pharmacophore element distance, pharmacophore element H2: 0
Table A4-2, element H3
  Ligand-pharmacophore element distance, pharmacophore element H3: 5.3
Table A4-2, element H4
  Ligand-pharmacophore element distance, pharmacophore element H4: 3.52
Table A4-2, element N1
  Ligand-pharmacophore element distance, pharmacophore element N1: 1.61
Table A4-2, element N2
  Ligand-pharmacophore element distance, pharmacophore element N2: 1.72
Table A4-2, element O1
  Ligand-pharmacophore element distance, pharmacophore element O1: 3.1
Table A4-2, element O2
  Ligand-pharmacophore element distance, pharmacophore element O2: 0.75
Table A4-2, element O3
  Ligand-pharmacophore element distance, pharmacophore element O3: 0
Table A4-2, element O4
  Ligand-pharmacophore element distance, pharmacophore element O4: 0
[1]
  d(CA1,N1): 3.61
  d(CA1,O1): 4.47
  d(CA1,O2): 4.74
  d(H4,O1): 4.02
  d(H4,O2): 4.01
  d(O1,O2): 3.46
[2]
  d(N2,C2): 4.38
  d(N2,CA2): 7.44
  d(O2,H3): 5.89
  d(O2,N2): 2.86
Table A6-1 pharmacophore angle
  a(CA1, O1, O2): 116.12
  a(O1, O2, H4): 128.91
Table A6-1 pharmacophore angle, all compounds with protonatable center N1 except Methyl-amino-pyridine
  A(N1, CA1, O1) a): 164.17
Table A6-2 pharmacophore angle
  a(O1, O2, H3): 152.56
  a(O1, O2, N2): 148.96
  a(O2, N2, C2): 139.99
  a(O2, N2, CA2): 158.67
[3]
  Pharmacophore torsion angle a(H4, O1, O2, H3): −9.33
  Pharmacophore torsion angle a(H4, O1, O2, N2): 44.33
  Pharmacophore torsion angle a(N1, CA1, O2, H4): 69.40
  Pharmacophore torsion angle a(O1, H4, O2, CA1): 68.80
  Pharmacophore torsion angle a(O1, O2, N2, C2): 151.54
Table A7-2, between pharmacophore elements of the bound compound
  Pharmacophore torsion angle a(O1, O2, N2, CA2): 159.77
Table A8-6, 6th residue column, nearest protein atom in cell to the left
  Pharmacophore protein distance to MET_658 (first MET_658 column): 1.07
Table A8-6, 9th residue column, nearest protein atom in cell to the left
  Pharmacophore protein distance to MET_658 (second MET_658 column): 4.17
[4]
  Pharmacophore protein distance to GLY_528: 4.01
  Pharmacophore protein distance to PHE_529: 3.09
  Pharmacophore protein distance to PRO_608: 3.74
  Pharmacophore protein distance to SER_611: 2.54
Table A8-6, pharmacophore elements C6, CA3, O3, H1, nearest protein atom in cell to the left
  Pharmacophore protein distance to TRP_655: 3.27
